Here are results for 15 compounds from ChEMBL document CHEMBL1132897, “The basal SAR of a novel insulin receptor activator” (Bioorg Med Chem Lett, 2000).

Molecules are shown by their SMILES.

Experiment [1] concerns the target Insulin receptor (Homo sapiens) (UniProt P06213). Kind of experiment: Percent activation of insulin receptor in CHO cells by 10 uM of compound. It is filed as cell-based.
The target is the same in experiment [2]. Kind of experiment: Ability to activate the insulin receptor compared to that of lead structure 1 expressed as X/1.

Sequence of Insulin receptor (Homo sapiens) (P06213 28-758 limits assumed): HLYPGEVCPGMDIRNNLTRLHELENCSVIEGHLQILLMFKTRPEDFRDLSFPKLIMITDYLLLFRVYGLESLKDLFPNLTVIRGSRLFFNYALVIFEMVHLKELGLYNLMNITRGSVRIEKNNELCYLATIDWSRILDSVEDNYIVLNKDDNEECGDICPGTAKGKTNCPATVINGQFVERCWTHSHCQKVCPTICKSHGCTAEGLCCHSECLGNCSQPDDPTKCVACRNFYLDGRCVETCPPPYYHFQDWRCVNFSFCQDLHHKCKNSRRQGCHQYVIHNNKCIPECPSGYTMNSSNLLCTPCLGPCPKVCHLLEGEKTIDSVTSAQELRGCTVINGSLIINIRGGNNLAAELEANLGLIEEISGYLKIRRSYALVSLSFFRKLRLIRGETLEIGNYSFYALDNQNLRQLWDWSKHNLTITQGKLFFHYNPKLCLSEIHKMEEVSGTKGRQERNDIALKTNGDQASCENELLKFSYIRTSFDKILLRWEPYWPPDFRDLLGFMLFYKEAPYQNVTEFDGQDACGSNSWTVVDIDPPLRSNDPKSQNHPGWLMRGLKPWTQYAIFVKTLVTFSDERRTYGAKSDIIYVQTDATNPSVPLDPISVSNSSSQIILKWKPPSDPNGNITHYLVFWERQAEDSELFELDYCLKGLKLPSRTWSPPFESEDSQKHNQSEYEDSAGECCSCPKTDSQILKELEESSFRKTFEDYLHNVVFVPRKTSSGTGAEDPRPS
Sequence of Insulin receptor (Homo sapiens) (P06213 763-1382 limits assumed): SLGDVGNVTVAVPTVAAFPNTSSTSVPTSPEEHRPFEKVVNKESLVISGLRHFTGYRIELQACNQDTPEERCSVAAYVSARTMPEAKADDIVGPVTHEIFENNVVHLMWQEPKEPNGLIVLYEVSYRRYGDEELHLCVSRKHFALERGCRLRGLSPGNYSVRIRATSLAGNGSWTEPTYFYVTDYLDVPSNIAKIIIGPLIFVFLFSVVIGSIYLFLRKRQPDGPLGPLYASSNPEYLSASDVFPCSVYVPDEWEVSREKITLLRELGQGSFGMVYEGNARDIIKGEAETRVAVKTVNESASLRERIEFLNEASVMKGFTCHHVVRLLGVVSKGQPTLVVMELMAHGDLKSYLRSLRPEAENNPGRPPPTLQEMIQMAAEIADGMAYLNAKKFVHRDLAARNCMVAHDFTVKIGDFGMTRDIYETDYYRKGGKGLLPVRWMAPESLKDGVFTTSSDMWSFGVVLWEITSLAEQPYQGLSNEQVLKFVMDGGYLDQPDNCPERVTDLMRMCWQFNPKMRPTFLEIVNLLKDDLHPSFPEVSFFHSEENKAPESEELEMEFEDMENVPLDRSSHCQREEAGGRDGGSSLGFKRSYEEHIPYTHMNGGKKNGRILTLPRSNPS

For `C=CC(C)(C)c1c(C2=C(O)C(O)=C(c3cn(C)c4c(CC=C(C)C)cccc34)C(=O)C2=O)c2ccccc2n1C`, the Activation in experiment [1] turned out to be 3%. In experiment [2], this compound showed a Relative activity of 0.03.
Consider `C=CC(C)(C)c1[nH]c2ccccc2c1C1=C(O)C(O)=C(c2c[nH]c3c(CC=C(C)C)cccc23)C(=O)C1=O`, for which the Activation in experiment [1] was determined as 75%. This compound displayed a Relative activity in experiment [2] of 1.
The corresponding values for `C=CC(C)(C)c1[nH]c2ccccc2c1C1=C(OS(=O)(=O)C(F)(F)F)C(=O)C(c2c[nH]c3c(CC=C(C)C)cccc23)=C(OS(=O)(=O)C(F)(F)F)C1=O` are 0% and 0.
In the same order, the values of `C=CC(C)(C)c1[nH]c2ccccc2c1C1=C(OS(=O)(=O)C(F)(F)F)C(=O)C(c2c[nH]c3c(CC=C(C)C)cccc23)=C(N)C1=O` are 0% and 0.
In experiment [1], `C=CC(C)(C)c1[nH]c2ccccc2c1C1=C(O)C(O)=C(c2cn(C)c3c(CC=C(C)C)cccc23)C(=O)C1=O` gave an Activation of 24%. Besides, in experiment [2], the Relative activity stood at 0.32.
Regarding `C=CC(C)(C)c1[nH]c2ccccc2c1C1=C(OC)C(=O)C(c2c[nH]c3c(CC=C(C)C)cccc23)=C(O)C1=O`, in experiment [1], the Activation came to 16%. The Relative activity in experiment [2] turned out to be 0.21.
`C=CC(C)(C)c1[nH]c2ccccc2c1C1=C(OC)C(=O)C(c2c[nH]c3c(CC=C(C)C)cccc23)=C(OC)C1=O`: in experiment [1], the Activation amounted to 0%. In addition, the Relative activity in experiment [2] came out at 0.
For `C=CC(C)(C)c1[nH]c2ccccc2c1C1=C(O)C(O)=C(c2c[nH]c3c(CCC(C)(C)OC(=O)C(F)(F)F)cccc23)C(=O)C1=O`, the Activation in experiment [1] was 48%. The same compound showed a Relative activity in experiment [2] of 0.64.
As for `C=CC(C)(C)c1[nH]c2ccccc2c1C1=C(O)C(N)=C(c2c[nH]c3c(CC=C(C)C)cccc23)C(=O)C1=O`, the Activation in experiment [1] was 2%. Moreover, in experiment [2], the Relative activity amounted to 0.03.
In experiment [1], `C=CC(C)(C)c1[nH]c2ccccc2c1C1=C(O)C(=N\C)/C(c2c[nH]c3c(CC=C(C)C)cccc23)=C(O)C/1=N/C` came in with an Activation of 1%. Moreover, the Relative activity in experiment [2] amounted to 0.01.
In the same order, the values of `CCC(C)(C)c1[nH]c2ccccc2c1C1=C(O)C(O)=C(c2c[nH]c3c(CCC(C)C)cccc23)C(=O)C1=O` are 57% and 0.76.
The corresponding values for `C=CC(C)(C)c1c(C2=C(O)C(O)=C(c3c[nH]c4c(CCC(C)(C)O)cccc34)C(=O)C2=O)c2ccccc2n1C` are 79% and 1.05.
In the same order, the values of `CCC(C)(C)c1[nH]c2ccccc2c1C1=C(O)C(O)=C(c2c[nH]c3c(CC=C(C)C)cccc23)C(=O)C1=O` are 82% and 1.09.
Take `C=CC(C)(C)c1[nH]c2ccccc2c1C1=C(O)C(O)=C(c2c[nH]c3c(CCC(C)(C)O)cccc23)C(=O)C1=O`: the Activation in experiment [1] came out at 35%. This compound displayed a Relative activity in experiment [2] of 0.47.
`C=CC(C)(C)c1[nH]c2ccccc2c1C1=C(O)C(O)=C(c2c[nH]c3c(CC(O)C(C)(C)O)cccc23)C(=O)C1=O` (stereo not given): in experiment [1], the Activation was determined as 75%. In experiment [2], this compound yielded a Relative activity of 1.
